In ChEMBL document CHEMBL4014283, “Structural insights of SmKDAC8 inhibitors: Targeting Schistosoma epigenetics through a combined structure-based 3D QSAR, in vitro and synthesis strategy” (Bioorg Med Chem, 2017) one finds inhibition and IC50 data, which are given here for 44 compounds.

The source made the active and inactive calls. No cut-off for these calls is given here.

The target of test [1] is T1, Histone deacetylase 8 (Schistosoma mansoni) (UniProt A5H660).
T1 sequence (whole entry): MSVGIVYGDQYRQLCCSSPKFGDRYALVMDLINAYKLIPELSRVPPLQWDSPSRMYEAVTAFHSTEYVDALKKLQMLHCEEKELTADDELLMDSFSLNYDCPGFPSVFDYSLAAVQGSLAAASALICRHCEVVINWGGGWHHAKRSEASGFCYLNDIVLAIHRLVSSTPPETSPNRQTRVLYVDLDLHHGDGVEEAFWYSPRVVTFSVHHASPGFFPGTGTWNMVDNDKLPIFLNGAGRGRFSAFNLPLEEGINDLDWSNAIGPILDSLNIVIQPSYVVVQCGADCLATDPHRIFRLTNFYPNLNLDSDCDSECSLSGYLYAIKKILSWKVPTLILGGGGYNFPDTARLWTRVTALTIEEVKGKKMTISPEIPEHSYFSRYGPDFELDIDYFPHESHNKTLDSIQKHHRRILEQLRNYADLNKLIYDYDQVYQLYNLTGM
The test can be described thus: Inhibition of Schistosoma mansoni KDAC8 at 30 uM using (FAM)-labeled peptide as substrate after 60 mins by microfluidic assay.

Another test addresses T2, Histone deacetylase 8 (Schistosoma mansoni, UniProt A5H660).
T2 sequence (A5H660 whole entry): T1 sequence (whole entry)
The test can be described thus: Inhibition of Schistosoma mansoni KDAC8 using (FAM)-labeled peptide as substrate after 60 mins by microfluidic assay. Particulars: read-out: IC50.

One may read the inhibition as the drop in the measured response relative to a control, in per cent. What is called IC50 is the concentration at which inhibition is half-maximal. On to `Nc1ccccc1NC(=O)c1ccc(-c2cn(CCc3ccsc3)nn2)cc1`, for which the inhibition entry in test [1] is “inactive”. On Histone deacetylase 8, the IC50 was over 30 µM.

`NCCCC[C@@H]1N=C(c2ccccc2)c2ccccc2N(CCCCC(=O)NO)C1=O` yielded an inhibition in test [1] of 4.32%. Further, the IC50 at Histone deacetylase 8 was over 30 µM.

In the case of `O=C(C[C@H]1N=C(c2ccccc2)c2ccccc2NC1=O)NO`, the inhibition in test [1] came out at 0%. Also, on Histone deacetylase 8, the IC50 was over 30 µM.

`CSCC[C@@H]1N=C(c2ccccc2)c2ccccc2NC1=O` yielded an inhibition in test [1] of 0%. Further, the IC50 at Histone deacetylase 8 is over 30 µM.

With `COC(=O)CCCCN1C(=O)[C@H](CCSC)N=C(c2ccccc2)c2ccccc21`, the inhibition in test [1] was 0%. For the same compound, at Histone deacetylase 8, the 50% inhibitory concentration (IC50) was over 30 µM.

`CC(C)[C@@H]1NC(=O)[C@H]2CCCN2C(=O)[C@@H]2CCCN2C(=O)C[C@@H](C(=O)NCCCC(=O)NO)NC1=O`: the inhibition in test [1] lay within 21 to 31.9%. Also, the IC50 on Histone deacetylase 8 was over 30 µM.

Take `C[C@@H]1N=C(c2ccccc2)c2ccccc2N(CCCCC(=O)NO)C1=O`: the inhibition in test [1] was determined as 16.9%. In addition, the IC50 at Histone deacetylase 8 is over 30 µM.

In turn, `NC(=O)C[C@@H]1N=C(c2ccccc2)c2ccccc2N(CCCCC(=O)NO)C1=O` returned an inhibition in test [1] of 0%. In addition, the IC50 at Histone deacetylase 8 is over 30 µM.

With `O=C(CCCCN1C(=O)[C@H](CC(=O)NC(c2ccccc2)(c2ccccc2)c2ccccc2)N=C(c2ccccc2)c2ccccc21)NO`, the inhibition in test [1] was 52.3%. In addition, the IC50 on Histone deacetylase 8 is 26.3 µM.

With `COC(=O)CCCCN1C(=O)[C@H](CCC(=O)NC(c2ccccc2)(c2ccccc2)c2ccccc2)N=C(c2ccccc2)c2ccccc21`, the inhibition in test [1] amounted to 0%. For the same compound, at Histone deacetylase 8, the IC50 was over 30 µM.

`C[C@@H]1N=C(c2ccccc2)c2ccccc2N(CCCCC(=O)O)C1=O` showed an inhibition in test [1] of 0%. Moreover, the IC50 on Histone deacetylase 8 is over 30 µM.

In turn, `O=C(O)C[C@@H]1N=C(c2ccccc2)c2ccccc2NC1=O` had an inhibition in test [1] of 0%. Besides, on Histone deacetylase 8, the IC50 was over 30 µM.

For the compound `COC(=O)CCCCN1C(=O)CN=C(c2ccccc2)c2ccccc21`, the inhibition in test [1] worked out at 0%. Moreover, the IC50 on Histone deacetylase 8 was over 30 µM.

`O=C(O)CCCCN1C(=O)[C@H](Cc2cncn2C(c2ccccc2)(c2ccccc2)c2ccccc2)N=C(c2ccccc2)c2ccccc21` had an inhibition in test [1] of 0%. Further, on Histone deacetylase 8, the IC50 was over 30 µM.

The compound `O=C(O)CCCCN1C(=O)[C@H](CC(=O)O)N=C(c2ccccc2)c2ccccc21` yielded an inhibition in test [1] of 0%. In addition, the IC50 on Histone deacetylase 8 is over 30 µM.

Take `CC(C)(C)OC(=O)CC[C@@H]1N=C(c2ccccc2)c2ccccc2NC1=O`: in test [1], the inhibition was found to be 0%. Further, the IC50 at Histone deacetylase 8 is over 30 µM.

In test [1], `N=C(N)NCCC[C@@H]1N=C(c2ccccc2)c2ccccc2N(CCCCC(=O)NO)C1=O` returned an inhibition of 23.5%. In addition, at Histone deacetylase 8, the IC50 is over 30 µM.

As to `O=C1CN=C(c2ccccc2)c2ccccc2N1` [RO-052921], the inhibition in test [1] was 9.5%. Moreover, at Histone deacetylase 8, the IC50 is over 30 µM.

As to `Nc1ccccc1NC(=O)c1ccc(CNC(=O)OCc2cccnc2)cc1` [ENTINOSTAT], the inhibition result in test [1] is “inactive”. On Histone deacetylase 8, the IC50 was over 30 µM.

The compound `CC(C)(C)OC(=O)C[C@H]1N=C(c2ccccc2)c2ccccc2NC1=O` displayed an inhibition in test [1] of 0%. Moreover, the IC50 on Histone deacetylase 8 was over 30 µM.

In test [1], `CC(C)(C)SC[C@H]1N=C(c2ccccc2)c2ccccc2N(CCCCC(=O)NO)C1=O` displayed an inhibition of 18.5%. At Histone deacetylase 8, the IC50 is over 30 µM.

In test [1], `CCC(C)[C@@H]1N=C(c2ccccc2)c2ccccc2N(CCCCC(=O)NO)C1=O` (single isomer, unassigned) registered an inhibition of 11.7%. The 50% inhibitory concentration (IC50) on Histone deacetylase 8 was over 30 µM.

`COC(=O)CCCCN1C(=O)[C@H](C)N=C(c2ccccc2)c2ccccc21` registered an inhibition in test [1] of 0%. Also, at Histone deacetylase 8, the IC50 is over 30 µM.

With `O=C(CCCCN1C(=O)[C@H](CO)N=C(c2ccccc2)c2ccccc21)NO`, the inhibition in test [1] was 0.46%. Moreover, on Histone deacetylase 8, the IC50 is over 30 µM.

Turning to `CC(C)(C)OC(=O)CC[C@@H]1N=C(c2ccccc2)c2ccccc2N(CCCCC(=O)NO)C1=O`, the inhibition in test [1] was 24.9%. For the same compound, the IC50 on Histone deacetylase 8 was over 30 µM.

`CC(C)(C)OC(=O)n1cc(C[C@@H]2N=C(c3ccccc3)c3ccccc3NC2=O)c2ccccc21`: the inhibition in test [1] amounted to 11.9%. For the same compound, the half-inhibitory concentration (IC50) on Histone deacetylase 8 was over 30 µM.

Take `CC(=O)SCC/C=C/[C@@H]1CC(=O)NCc2ccc(cc2)C2=N[C@@](C)(CS2)C(=O)N[C@@H](C(C)C)C(=O)O1`: the inhibition entry in test [1] was “inactive”. On Histone deacetylase 8, the IC50 is over 30 µM.

With `COC(=O)CCCCN1C(=O)[C@H](COC(C)(C)C)N=C(c2ccccc2)c2ccccc21`, the inhibition in test [1] worked out at 0%. At Histone deacetylase 8, the IC50 was over 30 µM.

Turning to `CC(C)C[C@@H]1N=C(c2ccccc2)c2ccccc2N(CCCCC(=O)NO)C1=O`, the inhibition in test [1] is 23.1%. Also, the IC50 at Histone deacetylase 8 is over 30 µM.

In test [1], `CC(C)(C)OC(=O)CC[C@@H]1N=C(c2ccccc2)c2ccccc2N(CCCCC(=O)O)C1=O` displayed an inhibition of 0%. Moreover, at Histone deacetylase 8, the IC50 was over 30 µM.

As to `CC(C)C[C@@H]1N=C(c2ccccc2)c2ccccc2NC1=O`, in test [1], the inhibition amounted to 0%. Besides, on Histone deacetylase 8, the IC50 is over 30 µM.

Compound `COC(=O)CCCCN1C(=O)[C@H](C(C)C)N=C(c2ccccc2)c2ccccc21` gave an inhibition in test [1] of 0%. The IC50 on Histone deacetylase 8 was over 30 µM.

For the compound `O=C(O)CCCCN1C(=O)[C@H](CC(=O)NC(c2ccccc2)(c2ccccc2)c2ccccc2)N=C(c2ccccc2)c2ccccc21`, the inhibition in test [1] worked out at 0%. Besides, at Histone deacetylase 8, the IC50 was over 30 µM.

For the compound `CC(C)(C)OC(=O)NCCCC[C@@H]1N=C(c2ccccc2)c2ccccc2N(CCCCC(=O)NO)C1=O`, in test [1], the inhibition turned out to be 25.1%. Besides, on Histone deacetylase 8, the IC50 was over 30 µM.

As to `CC(C)(C)OC(=O)NCCCC[C@@H]1N=C(c2ccccc2)c2ccccc2N(CCCCC(=O)O)C1=O`, in test [1], the inhibition turned out to be 0%. For the same compound, the IC50 at Histone deacetylase 8 was over 30 µM.

Consider `CC(C)(C)OC(=O)NCCCC[C@@H]1N=C(c2ccccc2)c2ccccc2NC1=O`, for which the inhibition in test [1] was determined as 0%. Besides, the IC50 at Histone deacetylase 8 is over 30 µM.

`Cc1c(C)c(S(=O)(=O)NC(=N)NCCC[C@@H]2N=C(c3ccccc3)c3ccccc3N(CCCCC(=O)O)C2=O)c(C)c2c1OC(C)(C)C2`: the inhibition in test [1] was 0%. The IC50 at Histone deacetylase 8 was over 30 µM.

In test [1], `O=C(CC[C@@H]1N=C(c2ccccc2)c2ccccc2NC1=O)NC(c1ccccc1)(c1ccccc1)c1ccccc1` came in with an inhibition of 10.4%. Further, the IC50 on Histone deacetylase 8 was over 30 µM.

Compound `CCCCCCCC(=O)SCC/C=C/[C@@H]1CC(=O)NCc2nc(cs2)C2=N[C@@](C)(CS2)C(=O)N[C@@H](C(C)C)C(=O)O1` [LARGAZOLE] gave an inhibition in test [1] of 4%. Besides, on Histone deacetylase 8, the IC50 is over 30 µM.

Compound `O=C(C[C@@H]1N=C(c2ccccc2)c2ccccc2NC1=O)NO` showed an inhibition in test [1] of 0%. The IC50 on Histone deacetylase 8 was over 30 µM.

Regarding `CC(C)(C)OC(=O)C[C@@H]1N=C(c2ccccc2)c2ccccc2N(CCCCC(=O)NO)C1=O`, in test [1], the inhibition is 38.8%. At Histone deacetylase 8, the IC50 is over 30 µM.

For the compound `Cc1c(C)c(S(=O)(=O)NC(=N)NCCC[C@@H]2N=C(c3ccccc3)c3ccccc3N(CCCCC(=O)NO)C2=O)c(C)c2c1OC(C)(C)C2`, the inhibition in test [1] was found to be 0%. For the same compound, the half-inhibitory concentration (IC50) at Histone deacetylase 8 is over 30 µM.

Consider `COC(=O)CCCCN1C(=O)[C@H](CC(C)C)N=C(c2ccccc2)c2ccccc21`, for which, in test [1], the inhibition amounted to 0%. The IC50 at Histone deacetylase 8 was over 30 µM.

`O=C(CCCCN1C(=O)[C@H](Cc2cnc[nH]2)N=C(c2ccccc2)c2ccccc21)NO` gave an inhibition in test [1] of 4.11%. Besides, the IC50 at Histone deacetylase 8 is over 30 µM.
